Experimental data taken from US20080138280A1, “Composition and Methods For Inhibiting Cell Survival” (The Cleveland Clinic Foundation, priority 2003, published 2008).

Legend:
[1] = system: NF-κB DNA binding activity; experiment: Electrophoretic mobility shift assay (EMSA) of NF-κB DNA binding activity, A375 cells; assay type: cell-based, human
Method: Electrophoretic mobility shift assay (EMSA). These methods apply generally to FIGS. 5, 9-10 which employ EMSA analysis. In FIG. 5, A375 cells were treated with NO donors (NO-Cbl, NOC-18, SNAP, 100 μM, 16 h), or with Apo2L/TRAIL (100 ng/ml) or TNF-α (20 ng/ml) for 1 h, or with the combination of NO donors (16 h) followed by Apo2L/TRAIL or TNF-α (1 h). Plates were washed twice with ice-cold PBS. Cells were resuspended in cold 1× lysis buffer (20 mM HEPES, 20 mM NaF, 1 mM Na3VO4, 1 mM EDTA, 1 mM DTT, 100 mM NaCl, 10% glycerol and protease inhibitors) and incubated on ice for 30 min followed by centrifugation at 4° C. at 10,000 rpm for 10 min. Supernatants were transferred to fresh tubes and protein concentrations were assessed using the Bradford method (Bio-RAD protein assay, BioRad, Hercules, Calif.). The NF-κB consensus binding sequence (5′[…] 3′) from the IFN-β gene promoter was end-labeled with γ^32P dATP ([…]) using T4 polynucleotide kinase. DNA binding reactions were performed in 20 μl volume containing 10 μg protein, 20 mM HEPES, 10 mM KCl, 0.1% NP-40, 0.5 mM DIT and 10% glycerol. The binding reaction was performed for 20 min at 25° C. Complexes were separated from the free probe on 6% non-denaturing polyacrylamide gels in 0.5×TBE buffer at 200 V for 2 h. Gels were dried and exposed to film.
Inhibition of NF-κB survival signaling by NO-Cbl. Because NF-κB is an important cell survival regulator, we examined the effects of NO-Cbl on NF-κB DNA binding activity. The NF-κB binding sequence from the IFN-β gene promoter was used as a probe to assess DNA binding activity. A375 cells were treated with TNF-α (20 ng/ml), Apo2L/TRAIL (100 ng/ml) or NO-Cbl (100 μM). FIG. 5, illustrates an Electrophoretic Mobility Shift Assay (EMSA) of NF-κB DNA binding activity. Pre-treatment of A375 cells with NO-Cbl inhibited the NF-κB DNA binding activity induced by Apo2L/TRAIL and TNF-α. […] NF-κB-luc transfected A375 cells were pre-treated with NO-Cbl followed by Apo2L/TRAIL or TNF-α. […] Cell lysates were analyzed for NF-κB-luc reporter activity. […]

[2] = system: phospho-IκBα in A375 cells; experiment: Western blot analysis of IκBα phosphorylation; assay type: cell-based, human; conditions: pre-treatment 100 μM
Method: Gel Electrophoresis and Immunoblot analyses. Please see FIG. 4. Whole cell lysates were prepared in 1× lysis buffer (50 mM Tris-Cl, pH 8.0, 1% Triton×100, 10% glycerol, 1 mM EDTA, 250 mM NaCl, 1 mM DTT, 1 mM PMSF, 10 μg/ml aprotinin, 10 μg/ml leupeptin, and 10 μg/ml pepstatin) for subsequent immunoblotting studies. The SDS-PAGE was conducted by using the Laemmli buffer system and 12% polyacrylamide gels. Proteins were transferred onto PVDF membranes by the semidry method (Trans Blot SD, BioRad, Hercules, Calif.). Binding of the primary and secondary antibodies was performed according to standard protocols. Membranes were immunoblotted with pAb to caspase-3, caspase-8, XIAP (BD-Pharmingen, San Diego, Calif.), PARP (BioMOL, Plymouth Meeting, Pa.), cIAP-1, FLIP, pIκBα and IκBα (Cell Signaling, Beverly, Mass.) followed by incubation with HRP conjugated secondary antibodies (Pierce, Rockford, Ill.). Immunoreactive bands were visualized by using enhanced chemiluminescence (Perkin Elmer, Boston, Mass.). Equal protein loading was confirmed by reprobing with monoclonal anti-actin antibody (Sigma Chemicals Co, St. Louis, Mo.). All immunoblots in this study were repeated 3 times with reproducible results.
NO-Cbl treatment affected the phosphorylation state of IκBα, the prototypic inhibitor of NF-κB. Western blot analysis was performed to assess levels of phospho-IκBα and IκBα. FIG. 6 is a Western blot analysis of IκB levels and IκBα phosphorylation. IκBα and phospho-IκBα protein levels were determined in A375 whole cell lysates. […] NO-Cbl, NOC-18, and SNAP pre-treatment all inhibited Apo2L/TRAIL-induced IκBα phosphorylation.

nitrosylcobalamin [NO-Cbl]
NF-κB DNA binding activity induced by Apo2L/TRAIL ([1]; NO donor 100 μM pre-treatment 16 h, Apo2L/TRAIL 100 ng/ml 1 h): inhibited
NF-κB DNA binding activity induced by TNF-α ([1]; NO-Cbl 100 μM pre-treatment 16 h, TNF-α 20 ng/ml 1 h): inhibited
IκBα phosphorylation induced by Apo2L/TRAIL ([2]; Apo2L/TRAIL 100 ng/ml): blocked
IκBα phosphorylation induced by TNF-α ([2]; TNF-α 20 ng/ml): blocked
